# Reference: patent US8642540B2 (Zealand Pharma A/S, priority 2008, dated 2014)
# Read-outs that look alike come from different tables or passages of the source. Non-standard residues stand in square brackets, D forms with d. Residues, ends and D or L forms follow the SMILES beside them.
# Tests used:
# [1] = system: primary rat adipocyte cultures; type: cell-based; conditions: for Stimulation of lipolysis EC50 / lipolysis potency relative to OXM: primary rat adipocyte cultures; for Stimulation of lipolysis EC50: 60 min at 37° C., glycerol formed
# Experimental: Adipocytes were isolated from epididymal fat dissected from normal young adult Sprague-Dawley rats. The fat lumps were minced, incubated and shaken (220 rpm) with collagenase (1 mg/ml) in Krebs-Ringer buffer containing 4% BSA (KRB-BSA) for 60 minutes at 37° C. The suspension was filtered through a nylon filter (160 μm pore size) and the filtrate centrifuged at 200×g for 3 min. The subjacent medium beneath the upper floating layer of adipocytes was removed with a Pasteur-pipette. The adipocytes were washed 3 times in KRB-BSA buffer by re-suspension and centrifugation. The adipocytes were re-suspended in KRB-BSA, mixed, incubated in and shaken with test compounds in 96-deep well plates (50,000 cells/well) in a total volume of 1 ml at 37° C. for 60 min. The plates were placed on ice for at least 10 min after incubation followed by centrifugation at 200×g for 3 min. 300 μl of the buffer beneath the adipocyte layer were collected in a 96-deep well plate. This process was repeated two more times and the 3 extracts collected from each culture pooled together.
# human Glucagon-R = biological target: T1, human Glucagon-R (Homo sapiens, UniProt P47871); experiment: Glucagon receptor efficacy assay (cAMP in HEK293 cells); type: cell-based; conditions: HEK293 cells expressing human Glucagon-R, 15 min at 37° C., read-out: GLUR EC50
# T1 construct: expressed in transfected cells
# Experimental: (§1) The 5′-end primers additionally encoded a near Kozak consensus sequence to ensure efficient translation.
# (§2) 48 hr after transfection cells were seeded for limited dilution cloning and selected with 1 mg/ml G418 in the culture medium.
# (§3) On the day of analysis, growth medium was removed and the cells washed once with 200 μl Tyrode buffer. Cells were incubated in 100 μl Tyrode buffer containing increasing concentrations of test peptides, 100 μM IBMX, and 6 mM glucose for 15 min at 37° C. The reaction was stopped by addition of 25 μl 0.5 M HCl and incubated on ice for 60 min. The cAMP content was estimated using the FlashPlate® cAMP kit from Perkin-Elmer.
# human GLP-1-R = biological target: T2, human GLP-1-R (Homo sapiens, UniProt P43220); experiment: GLP-1 receptor efficacy assay (cAMP in HEK293 cells); type: cell-based; conditions: HEK293 cells expressing human GLP-1-R, 15 min at 37° C.
# T2 construct: expressed in transfected cells
# Experimental: as §1, §2, §3
# diet induced obese mice = experiment: 28 day treatment of diet induced obese (DIO) mice, body weight gain; type: in vivo, mouse; conditions: C57Bl/6 male mice on high fat diet, 500 nmol/kg b.i.d. s.c., 28 days
# Experimental: Effects of 28 Day Treatment of Diet Induced Obese (DIO) Mice with ZP2495 (SEQ ID NO: 5) on Body Weight Gain Four weeks before drug treatments, C57Bl/6 male mice (7 weeks) (N=10-12 animals in each group) were put on high fat diet (HFD) and their day-night cycle reversed with lights On/Off at 2000/0800 hour. Experimental animals were conditioned to treatment by daily injections (s.c.) of 0.1 ml vehicle and acclimatized to handling by weighing them twice a week one week before start of drug administrations. The day before start of experiment, mice were stratified into groups with similar body weight (BW) and the next day groups of stratified mice were treated (b.i.d.; s.c.) with ZP2495 (SEQ ID NO: 5) (500 nmol/kg) or vehicle. A non-obese control group maintained on regular chow was treated with vehicle in the same treatment regime as the DIO groups. Body weights were recorded daily and used to administer the body weight-corrected doses of peptide throughout the study. Animals were fasted overnight before sacrifice. […] Body weight gains throughout the treatment period were calculated for each animal by subtracting its weight at the initiation of treatment.
# The effects of treatment on body weight gain were assessed by 2-way ANOVA with repeated measures and Bonferoni post-hoc analyses were using with GraphPad Prism version 4. […]
# T2 sequence (P43220 24-463): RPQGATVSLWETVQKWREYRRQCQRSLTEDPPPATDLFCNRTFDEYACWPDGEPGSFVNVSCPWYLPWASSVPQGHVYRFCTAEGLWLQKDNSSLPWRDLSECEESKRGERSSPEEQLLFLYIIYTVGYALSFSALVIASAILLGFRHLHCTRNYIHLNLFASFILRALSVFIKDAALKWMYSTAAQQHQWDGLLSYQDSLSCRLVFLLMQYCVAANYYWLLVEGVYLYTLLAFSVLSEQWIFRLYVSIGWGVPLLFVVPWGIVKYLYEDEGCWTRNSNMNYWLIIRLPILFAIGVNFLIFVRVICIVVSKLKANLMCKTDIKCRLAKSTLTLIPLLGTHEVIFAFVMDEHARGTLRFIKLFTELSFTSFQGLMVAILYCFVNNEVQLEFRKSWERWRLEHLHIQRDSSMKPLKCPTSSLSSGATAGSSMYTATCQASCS
# T1 sequence (P47871 26-477): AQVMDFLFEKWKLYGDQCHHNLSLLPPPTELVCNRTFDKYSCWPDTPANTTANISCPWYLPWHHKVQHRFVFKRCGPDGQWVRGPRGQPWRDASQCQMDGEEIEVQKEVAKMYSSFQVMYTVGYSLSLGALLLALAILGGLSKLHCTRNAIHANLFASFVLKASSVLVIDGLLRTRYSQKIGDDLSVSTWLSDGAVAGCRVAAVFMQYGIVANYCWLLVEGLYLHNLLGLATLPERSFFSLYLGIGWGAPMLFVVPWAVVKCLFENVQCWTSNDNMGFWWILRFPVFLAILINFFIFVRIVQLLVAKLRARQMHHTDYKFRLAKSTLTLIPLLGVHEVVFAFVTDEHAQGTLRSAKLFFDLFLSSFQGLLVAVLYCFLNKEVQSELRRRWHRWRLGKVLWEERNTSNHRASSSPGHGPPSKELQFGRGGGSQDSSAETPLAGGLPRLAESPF
Molecule,EC50 [1],EC50 (human Glucagon-R),EC50 (human GLP-1-R),Stimulation of lipolysis EC50 [1],Stimulation of lipolysis EC50 ([1]; listed as exendin-4),lipolysis potency relative to OXM [1],"body weight gain versus vehicle group (diet induced obese mice; 2-way ANOVA, p<0.05)",body weight gain (diet induced obese mice; compared with chow-fed controls)
CC(C)C[C@H](NC(=O)[C@H](Cc1c[nH]c2ccccc12)NC(=O)[C@H](C)NC(=O)[C@@H](NC(=O)[C@H](Cc1ccccc1)NC(=O)[C@H](CC(=O)O)NC(=O)[C@H](CC(=O)O)NC(=O)[C@H](C)NC(=O)[C@H](CCCNC(=N)N)NC(=O)[C@H](C)NC(=O)[C@H](CCCNC(=N)N)NC(=O)[C@H](CC(=O)O)NC(=O)[C@H](CC(C)C)NC(=O)[C@H](Cc1ccc(O)cc1)NC(=O)[C@H](CCCCN)NC(=O)[C@H](CO)NC(=O)[C@H](Cc1ccc(O)cc1)NC(=O)[C@H](CC(=O)O)NC(=O)[C@H](CO)NC(=O)[C@@H](NC(=O)[C@H](Cc1ccccc1)NC(=O)[C@@H](NC(=O)CNC(=O)[C@H](CCC(N)=O)NC(=O)[C@@H](CO)NC(=O)[C@@H](N)Cc1c[nH]cn1)[C@@H](C)O)[C@@H](C)O)C(C)C)C(=O)N[C@@H](CCCCN)C(=O)N[C@@H](CO)C(=O)N[C@H](C(N)=O)[C@@H](C)O [ZP2654] (H-H[dS]QGTFTSDYSKYLDRARADDFVAWLKST-NH2),326 nM,0.5 nM,0.8 nM,–,–,–,–,–
Exendin-4 [reference compound],–,–,–,No effect,no effect,–,–,–
H-HSQGTFTSDYSKYLDRARADDFVAWLKSA-NH2 [ZP2634],127 nM,0.5 nM,0.2 nM,–,–,equipotent with OXM,–,–
H-HSQGTFTSDYSKYLDRARADDFVEWLKST-NH2 [ZP2649],57 nM,–,0.1 nM,–,–,–,–,–
H-HSQGTFTSDYSKYLDRARAEDFVAWLKST-NH2 [ZP2637],42 nM,0.2 nM,0.1 nM,–,–,–,–,–

# Further molecules by falling EC50 [1], results first:
EC50 [1],EC50 (human Glucagon-R),EC50 (human GLP-1-R),Molecule,Stimulation of lipolysis EC50 [1],Stimulation of lipolysis EC50 ([1]; listed as exendin-4),lipolysis potency relative to OXM [1],"body weight gain versus vehicle group (diet induced obese mice; 2-way ANOVA, p<0.05)",body weight gain (diet induced obese mice; compared with chow-fed controls)
137 nM,–,–,H-HSQGTFTSDYSKYLDRARADDFVAWLKST-NH2 [ZP2495],–,–,equipotent with OXM,statistically significantly less than observed in the vehicle group,decreased body weight gain to a level similar to that observed with chow feeding
93 nM,0.2 nM,0.2 nM,H-HSQGTFTSDYSKYLDRARADDFVAWLKEA-NH2 [ZP2635],–,–,–,–,–
26 nM,0.2 nM,0.1 nM,H-HSQGTFTSDYSKYLDRARAHDFVAWLKST-NH2 [ZP2648],–,–,–,–,–
15 nM,–,0.8 nM,H-HSQGTFTSDYSKYLDRARADDFVAWLERA-NH2 [ZP2650],–,–,–,–,–
